Among the data in patent publication US20160304461A1, “QUINOLONE COMPOUND AND PHARMACEUTICAL COMPOSITION” (OTSUKA PHARMACEUTICAL CO., LTD., priority 2007, published 2016) are melting point values, retold here.

Molecules are shown by their SMILES.

For orientation: melting point means the temperature, or range, at which the solid turns liquid.

`CCCOc1ccc(F)c2c(=O)c(-c3ccc(OC(F)(F)F)cc3)c[nH]c12` [Example 5, 5-Fluoro-8-propoxy-3-(4-trifluoromethoxyphenyl)-1H-quinolin-4-one] returned a melting point of 212 to 214 °C.

`CCCOc1ccc(F)c2c(=O)c(-c3ccc(OC)cc3F)c[nH]c12` [Example 17, 5-Fluoro-3-(2-fluoro-4-methoxyphenyl)-8-propoxy-1H-quinolin-4-one] yielded a melting point of 230 to 232 °C.

On to `COc1ccc(-c2c[nH]c3c(N(C)CC(C)C)ccc(F)c3c2=O)cc1` [Example 28, 5-Fluoro-8-(N-isobutyl-N-methylamino)-3-(4-methoxyphenyl)-1H-quinolin-4-one], for which the melting point is 144 to 145 °C.

For `O=c1c(-c2ccc(O)cc2)c[nH]c2c(O)ccc(F)c12` [Example 96, 5-Fluoro-8-hydroxy-3-(4-hydroxyphenyl)-1H-quinolin-4-one], the melting point is 303 to 305 °C (dec.).

As for `CCCOc1ccc(F)c2c(=O)c(-c3ccc(OC)c(F)c3)c[nH]c12` [Example 2, 5-Fluoro-3-(3-fluoro-4-methoxyphenyl)-8-propoxy-1H-quinolin-4-one], the melting point lay in the range of 194 to 195 °C.

With `COc1ccc(-c2c[nH]c3c(OCC4CCCO4)ccc(F)c3c2=O)cc1` (stereo not drawn) [Example 39, 5-Fluoro-3-(4-methoxyphenyl)-8-(tetrahydrofuran-2-ylmethoxy)-1H-quinolin-4-one], the melting point lay in the range of 108 to 110 °C.

In turn, `CCCOc1ccc(F)c2c(=O)c(-c3ccc(OC)cc3C)c[nH]c12` [Example 16, 5-Fluoro-3-(4-methoxy-2-methylphenyl)-8-propoxy-1H-quinolin-4-one] came in with a melting point of 197 to 199 °C.

As to `CCCOc1ccc(F)c2c(=O)c(-c3ccc(Cl)cc3Cl)c[nH]c12` [Example 10, 3-(2,4-Dichlorophenyl)-5-fluoro-8-propoxy-1H-quinolin-4-one], the melting point was in the range of 256 to 259 °C.

`CCCOc1ccc(F)c2c(=O)c(-c3ccc(CC)cc3)c(C(F)(F)F)[nH]c12` [Example 80, 3-(4-Ethylphenyl)-5-fluoro-8-propoxy-2-trifluoromethyl-1H-quinolin-4-one] gave a melting point of 187 to 188 °C.

Compound `CCCOc1ccc(F)c2c(=O)c(-c3ccc(OC)cc3OC)c[nH]c12` [Example 8, 3-(2,4-Dimethoxyphenyl)-5-fluoro-8-propoxy-1H-quinolin-4-one] registered a melting point of 116 to 118 °C.

Compound `CCCOc1ccc(F)c2c(=O)c(-c3cccs3)c(C(F)(F)F)[nH]c12` [Example 85, 5-Fluoro-8-propoxy-3-thiophen-2-yl-2-trifluoromethyl-1H-quinolin-4-one] returned a melting point of 149 to 150 °C.

Consider `CCCOc1ccc(F)c2c(=O)c(-c3ccc(OC)cc3O)c[nH]c12` [Example 98, 5-Fluoro-3-(2-hydroxy-4-methoxyphenyl)-8-propoxy-1H-quinolin-4-one], for which the melting point was 208 to 209 °C.

`COc1ccc(-c2c[nH]c3c(-c4cc5ccccc5s4)ccc(F)c3c2=O)cc1` [Example 88, 8-Benzo[b]thiophen-2-yl-5-fluoro-3-(4-methoxyphenyl)-1H-quinolin-4-one]: the melting point was 276 to 277 °C.

For the compound `CCCOc1ccc(F)c2c(=O)c(-c3ccc(C(=O)N4CCOCC4)cc3)c[nH]c12` [Example 90, 5-Fluoro-3-[4-(morpholine-4-carbonyl)phenyl]-8-propoxy-1H-quinolin-4-one], the melting point fell in the range of 234 to 236 °C.

Compound `CCCOc1ccc(F)c2c(=O)c(-c3ccc(C(=O)N(C)C)cc3)c[nH]c12` [Example 57, 4-(5-Fluoro-4-oxo-8-propoxy-1,4-dihydroquinolin-3-yl)-N,N-dimethylbenzamide] came in with a melting point of 235 to 237 °C.

In the case of `CCCOc1ccc(F)c2c(=O)c(-c3ccc(F)cc3)c(C)[nH]c12` [Example 74, 5-Fluoro-3-(4-fluorophenyl)-2-methyl-8-propoxy-1H-quinolin-4-one], the melting point lay within 196 to 197 °C.

Consider `CCCOc1ccc(F)c2c(=O)c(-c3ccco3)c[nH]c12` [Example 58, 5-Fluoro-3-furan-2-yl-8-propoxy-1H-quinolin-4-one], for which the melting point was 210 to 212 °C.

Compound `CCCOc1ccc(F)c2c(=O)c(-c3ccsc3C=O)c[nH]c12` [Example 60, 3-(5-Fluoro-4-oxo-8-propoxy-1,4-dihydroquinolin-3-yl)thiophene-2-carbaldehyde] yielded a melting point of 190 to 191 °C.

In turn, `COc1ccc(-c2c[nH]c3c(N(C)C(C)C)ccc(F)c3c2=O)cc1` [Example 29, 5-Fluoro-8-(N-isopropyl-N-methylamino)-3-(4-methoxyphenyl)-1H-quinolin-4-one] came in with a melting point of 267 to 269 °C.

For the compound `CCCOc1ccc(F)c2c(=O)c(-c3cccnc3)c(C)[nH]c12` [Example 68, 5-Fluoro-2-methyl-8-propoxy-3-pyridin-3-yl-1H-quinolin-4-one], the melting point lay within 190 to 192 °C.

`COc1ccc(-c2c[nH]c3c(OC(C)(C)C)ccc(F)c3c2=O)cc1` [Example 42, 8-tert-Butoxy-5-fluoro-3-(4-methoxyphenyl)-1H-quinolin-4-one] showed a melting point of 206 to 208 °C.

Compound `CCCOc1ccc(F)c2c(=O)c(-c3ccncc3)c[nH]c12` [Example 51, 5-Fluoro-8-propoxy-3-pyridin-4-yl-1H-quinolin-4-one] yielded a melting point of 259 to 261 °C.

The compound `CCCOc1ccc(F)c2c(=O)c(-c3ccc(OC)cc3OC)c(C)[nH]c12` [Example 75, 3-(2,4-Dimethoxyphenyl)-5-fluoro-2-methyl-8-propoxy-1H-quinolin-4-one] yielded a melting point of 100 to 101 °C.

`CCCOc1ccc(F)c2c(=O)c(-c3cccs3)c(C)[nH]c12` [Example 72, 5-Fluoro-2-methyl-8-propoxy-3-thiophen-2-yl-1H-quinolin-4-one]: the melting point was in the range of 233 to 234 °C.

In turn, `CCCOc1ccc(F)c2c(=O)c(-c3ccc(O)cc3OC)c[nH]c12` [Example 97, 5-Fluoro-3-(4-hydroxy-2-methoxyphenyl)-8-propoxy-1H-quinolin-4-one] had a melting point of 251 to 253 °C.

Compound `COc1ccc(-c2c[nH]c3c(OC4CCCC4)ccc(Br)c3c2=O)cc1` [Example 104, 5-Bromo-8-cyclopentyloxy-3-(4-methoxyphenyl)-1H-quinolin-4-one] displayed a melting point of 213 to 215 °C.

The compound `CCCOc1ccc(F)c2c(=O)c(-c3ccc(OCC)cc3OC)c[nH]c12` [Example 19, 3-(4-Ethoxy-2-methoxyphenyl)-5-fluoro-8-propoxy-1H-quinolin-4-one] gave a melting point of 118 to 120 °C.

The compound `COc1ccc(-c2c[nH]c3c(N4CCOCC4)ccc(F)c3c2=O)cc1` [Example 14, 5-Fluoro-3-(4-methoxyphenyl)-8-morpholin-4-yl-1H-quinolin-4-one] gave a melting point of 249 to 251 °C.

In turn, `CCCOc1ccc(F)c2c(=O)c(-c3ccc(F)cc3)c(C(F)(F)F)[nH]c12` [Example 81, 5-Fluoro-3-(4-fluorophenyl)-8-propoxy-2-trifluoromethyl-1H-quinolin-4-one] had a melting point of 154 to 155 °C.

In the case of `CCCOc1ccc(Cl)c2c(=O)c(-c3ccc(OC)cc3)c[nH]c12` [Example 103, 5-Chloro-3-(4-methoxyphenyl)-8-propoxy-1H-quinolin-4-one], the melting point fell in the range of 194 to 196 °C.

`CCCOc1ccc(F)c2c(=O)c(-c3ccc(C(=O)N4CCCC4)cc3)c[nH]c12` [Example 56, 5-Fluoro-8-propoxy-3-[4-(pyrrolidine-1-carbonyl)phenyl]-1H-quinolin-4-one] had a melting point of 236 to 237 °C.

`COc1ccc(-c2c[nH]c3c(OCC(C)O)ccc(F)c3c2=O)cc1` (stereo not drawn) [Example 102, 5-Fluoro-8-(2-hydroxypropoxy)-3-(4-methoxyphenyl)-1H-quinolin-4-one] returned a melting point of 216 to 218 °C.

Regarding `CCOc1ccc(F)c2c(=O)c(-c3ccc(Cl)cc3Cl)c[nH]c12` [Example 13, 3-(2,4-Dichlorophenyl)-8-ethoxy-5-fluoro-1H-quinolin-4-one], the melting point lay within 236 to 237 °C.

Take `CCCOc1ccc(F)c2c(=O)c(-c3ccncc3)c(C)[nH]c12` [Example 69, 5-Fluoro-2-methyl-8-propoxy-3-pyridin-4-yl-1H-quinolin-4-one]: the melting point lay in the range of 265 to 266 °C.

For the compound `CCCOc1ccc(F)c2c(=O)c(-c3ccc(C(C)=O)cc3)c[nH]c12` [Example 54, 3-(4-Acetylphenyl)-5-fluoro-8-propoxy-1H-quinolin-4-one], the melting point was 180 to 181 °C.

`CCOc1ccc(F)c2c(=O)c(-c3ccc(OC)cc3OC)c[nH]c12` [Example 12, 3-(2,4-Dimethoxyphenyl)-8-ethoxy-5-fluoro-1H-quinolin-4-one] showed a melting point of 154 to 155 °C.

Regarding `CCCOc1ccc(F)c2c(=O)c(-c3ccc(OC)cc3OC(C)C)c[nH]c12` [Example 15, 5-Fluoro-3-(2-isopropoxy-4-methoxyphenyl)-8-propoxy-1H-quinolin-4-one], the melting point is 204 to 206 °C.

`CCCOc1ccc(F)c2c(=O)c(-c3ccc(OC(C)C)cc3OC)c[nH]c12` [Example 20, 5-Fluoro-3-(4-isopropoxy-2-methoxyphenyl)-8-propoxy-1H-quinolin-4-one] gave a melting point of 113 to 115 °C.

Take `CCCOc1ccc(F)c2c(=O)c(-c3ccc(N(C)C)cc3)c(C(F)(F)F)[nH]c12` [Example 79, 3-(4-Dimethylaminophenyl)-5-fluoro-8-propoxy-2-trifluoromethyl-1H-quinolin-4-one]: the melting point was 176 to 177 °C.

`CCCOc1ccc(F)c2c(=O)c(-c3ccccc3OC)c[nH]c12` [Example 7, 5-Fluoro-3-(2-methoxyphenyl)-8-propoxy-1H-quinolin-4-one] had a melting point of 193 to 195 °C.

In turn, `CCCOc1ccc(F)c2c(=O)c(-c3ccc(OC)cc3)c(C(F)(F)F)[nH]c12` [Example 77, 5-Fluoro-3-(4-methoxyphenyl)-8-propoxy-2-trifluoromethyl-1H-quinolin-4-one] registered a melting point of 170 to 171 °C.

`CCCOc1ccc(F)c2c(=O)c(-c3ccc(N(C)C)cc3)c(C)[nH]c12` [Example 73, 3-(4-Dimethylaminophenyl)-5-fluoro-2-methyl-8-propoxy-1H-quinolin-4-one] registered a melting point of 255 to 257 °C.
